Results taken from patent US11173162B2, “Bicyclic heterocycles as FGFR4 inhibitors” (Incyte Corporation, priority 2015, dated 2021).

The compounds below were run on FGFR3 enzyme (assay: FGFR Enzymatic Assay (FRET peptide phosphorylation), FGFR3). Conditions: IC50 ratio showing FGFR3 selectivity; Table 2A, pre-incubated for 4 hours.
Type: biochemical
Protocol: The inhibitor potency of the exemplified compounds was measured in an enzyme assay that measures peptide phosphorylation using FRET measurements to detect product formation. Inhibitors were serially diluted in DMSO and a volume of 0.5 μL was transferred to the wells of a 384-well plate.
GraphPad prism3 was used to analyze the data.

Row | FGFR1/FGFR3 | FGFR4/FGFR3 | SMILES
1 | >5 | >5 | CCN1C(=O)N(c2c(F)c(OC)cc(OC)c2F)Cc2cnc(-c3ccc(C(=O)NC(C)C)nc3)cc21 [Example 178, 5-(3-(2,6-difluoro-3,5-dimethoxyphenyl)-1-ethyl-2-oxo-1,2,3,4-tetrahydropyrido[4,3-d]pyrimidin-7-yl)-N-isopropylpicolinamide]
2 | >5 | >5 | COc1cc(OC)c(F)c(N2Cc3cnc(-c4cnn(CCCN5CCOCC5)c4)cc3C3(CC3)C2=O)c1F [Example 151, 2′-(2,6-difluoro-3,5-dimethoxyphenyl)-6′-(1-(3-morpholinopropyl)-1H-pyrazol-4-yl)-1′H-spiro[cyclopropane-1,4′-[2,7]naphthyridin]-3′(2′H)-one]
3 | >5 | >1 | COc1cc(OC)c(F)c(N2Cc3cnc(-c4cn(Cc5cccnc5)nc4C)cc3C3(CC3)C2=O)c1F [Example 155, 2′-(2,6-difluoro-3,5-dimethoxyphenyl)-6′-(3-methyl-1-(pyridin-3-ylmethyl)-1H-pyrazol-4-yl)-1′H-spiro[cyclopropane-1,4′-[2,7]naphthyridin]-3′(2′H)-one]
4 | >5 | >5 | COc1cc(OC)c(F)c(N2Cc3cnc(-c4cn(C)nc4C)cc3N(Cc3cnn(CC#N)c3)C2=O)c1F [Example 125, 2-(4-((3-(2,6-difluoro-3,5-dimethoxyphenyl)-7-(1,3-dimethyl-1H-pyrazol-4-yl)-2-oxo-3,4-dihydropyrido[4,3-d]pyrimidin-1(2H)-yl)methyl)-1H-pyrazol-1-yl)acetonitrile]
5 | >3 | >3 | COc1cc(OC)c(F)c(N2Cc3cnc(-c4cn(C5CCN(C)C5)nc4C)cc3C3(CC3)C2=O)c1F (centres unmarked) [Example 163, 2′-(2,6-difluoro-3,5-dimethoxyphenyl)-6′-(3-methyl-1-(1-methylpyrrolidin-3-yl)-1H-pyrazol-4-yl)-1′H-spiro[cyclopropane-1,4′-[2,7]naphthyridin]-3′(2′H)-one]
6 | >5 | >10 | CCN1C(=O)N(c2c(F)c(OC)cc(OC)c2F)Cc2cnc(-c3ccc(C(=O)NCCO)nc3)cc21 [Example 177, 5-(3-(2,6-difluoro-3,5-dimethoxyphenyl)-1-ethyl-2-oxo-1,2,3,4-tetrahydropyrido[4,3-d]pyrimidin-7-yl)-N-(2-hydroxyethyl)picolinamide]
7 | >10 | >3 | COc1cc(OC)c(F)c(N2Cc3cnc(-c4cnn(C5CCN(S(C)(=O)=O)C5)c4)cc3C3(CC3)C2=O)c1F (centres unmarked) [Example 147, 2′-(2,6-difluoro-3,5-dimethoxyphenyl)-6′-(1-(1-(methylsulfonyl)pyrrolidin-3-yl)-1H-pyrazol-4-yl)-1′H-spiro[cyclopropane-1,4′-[2,7]naphthyridin]-3′(2′H)-one]
8 | >3 | >5 | COc1cc(OC)c(F)c(N2Cc3cnc(-c4cn(C)nc4C)cc3N(c3ccc4[nH]ncc4c3)C2=O)c1F [Example 134, 3-(2,6-difluoro-3,5-dimethoxyphenyl)-7-(1,3-dimethyl-1H-pyrazol-4-yl)-1-(1H-indazol-5-yl)-3,4-dihydropyrido[4,3-d]pyrimidin-2(1H)-one]
9 | >10 | >5 | CCNC(=O)c1ccc(-c2cc3c(cn2)CN(c2c(F)c(OC)cc(OC)c2F)C(=O)N3CC)cn1 [Example 175, 5-(3-(2,6-difluoro-3,5-dimethoxyphenyl)-1-ethyl-2-oxo-1,2,3,4-tetrahydropyrido[4,3-d]pyrimidin-7-yl)-N-ethylpicolinamide]
10 | >3 | >3 | COc1cc(OC)c(F)c(N2Cc3cnc(-c4cn(CCC5CCNCC5)nc4C)cc3C3(CC3)C2=O)c1F [Example 165, 2′-(2,6-difluoro-3,5-dimethoxyphenyl)-6′-(3-methyl-1-(2-(piperidin-4-yl)ethyl)-1H-pyrazol-4-yl)-1′H-spiro[cyclopropane-1,4′-[2,7]naphthyridin]-3′(2′H)-one]
11 | >3 | >5 | COc1cc(OC)c(F)c(N2Cc3cnc(-c4cn(C)nc4C)cc3N(c3ccc(-c4nnc(C)o4)cc3)C2=O)c1F [Example 115, 3-(2,6-difluoro-3,5-dimethoxyphenyl)-7-(1,3-dimethyl-1H-pyrazol-4-yl)-1-(4-(5-methyl-1,3,4-oxadiazol-2-yl)phenyl)-3,4-dihydropyrido[4,3-d]pyrimidin-2(1H)-one]

Continued, compound first:

Row | SMILES | FGFR1/FGFR3 | FGFR4/FGFR3
12 | COc1cccc(N2C(=O)N(c3c(F)c(OC)cc(OC)c3F)Cc3cnc(-c4cn(C)nc4C)cc32)c1 [Example 109, 3-(2,6-difluoro-3,5-dimethoxyphenyl)-7-(1,3-dimethyl-1H-pyrazol-4-yl)-1-(3-methoxyphenyl)-3,4-dihydropyrido[4,3-d]pyrimidin-2(1H)-one] | >3 | >10
13 | COc1cc(OC)c(F)c(N2Cc3cnc(-c4cn(C)nc4C)cc3N(Cc3cc(C(C)C)on3)C2=O)c1F [Example 93, 3-(2,6-difluoro-3,5-dimethoxyphenyl)-7-(1,3-dimethyl-1H-pyrazol-4-yl)-1-((5-isopropylisoxazol-3-yl)methyl)-3,4-dihydropyrido[4,3-d]pyrimidin-2(1H)-one] | >5 | >5
14 | COc1cc(OC)c(F)c(N2Cc3cnc(-c4cn(C)nc4C)cc3N(c3cccc(F)c3)C2=O)c1F [Example 99, 3-(2,6-difluoro-3,5-dimethoxyphenyl)-7-(1,3-dimethyl-1H-pyrazol-4-yl)-1-(3-fluorophenyl)-3,4-dihydropyrido[4,3-d]pyrimidin-2(1H)-one] | >5 | >5
15 | CNS(=O)(=O)c1cccc(N2C(=O)N(c3c(F)c(OC)cc(OC)c3F)Cc3cnc(-c4cn(C)nc4C)cc32)c1 [Example 111, 3-(3-(2,6-difluoro-3,5-dimethoxyphenyl)-7-(1,3-dimethyl-1H-pyrazol-4-yl)-2-oxo-3,4-dihydropyrido[4,3-d]pyrimidin-1(2H)-yl)-N-methylbenzenesulfonamide] | >3 | >5
16 | COc1cc(OC)c(F)c(N2Cc3cnc(-c4cn(C)nc4C)cc3N(c3ccc(CC#N)cc3)C2=O)c1F [Example 97, 2-(4-(3-(2,6-difluoro-3,5-dimethoxyphenyl)-7-(1,3-dimethyl-1H-pyrazol-4-yl)-2-oxo-3,4-dihydropyrido[4,3-d]pyrimidin-1(2H)-yl)phenyl)acetonitrile] | >5 | >10
17 | COc1cc(CN2C(=O)N(c3c(F)c(OC)cc(OC)c3F)Cc3cnc(-c4cn(C)nc4C)cc32)ccn1 [Example 58, 3-(2,6-difluoro-3,5-dimethoxyphenyl)-7-(1,3-dimethyl-1H-pyrazol-4-yl)-1-((2-methoxypyridin-4-yl)methyl)-3,4-dihydropyrido[4,3-d]pyrimidin-2(1H)-one] | >10 | >10
18 | COc1cc(OC)c(F)c(N2Cc3cnc(-c4cn(C)nc4C)cc3N(c3ccc4ccncc4c3)C2=O)c1F [Example 63, 3-(2,6-difluoro-3,5-dimethoxyphenyl)-7-(1,3-dimethyl-1H-pyrazol-4-yl)-1-(isoquinolin-7-yl)-3,4-dihydropyrido[4,3-d]pyrimidin-2(1H)-one] | >10 | >5
19 | COc1cc(OC)c(F)c(N2Cc3cnc(-c4cn(C)nc4C)cc3N(Cc3ccncn3)C2=O)c1F [Example 65, 3-(2,6-difluoro-3,5-dimethoxyphenyl)-7-(1,3-dimethyl-1H-pyrazol-4-yl)-1-(pyrimidin-4-ylmethyl)-3,4-dihydropyrido[4,3-d]pyrimidin-2(1H)-one] | >5 | >10
20 | COc1cc(OC)c(F)c(N2Cc3cnc(-c4cn(C)nc4C)cc3N(Cc3ccc(F)cc3)C2=O)c1F [Example 34, 3-(2,6-difluoro-3,5-dimethoxyphenyl)-7-(1,3-dimethyl-1H-pyrazol-4-yl)-1-(4-fluorobenzyl)-3,4-dihydropyrido[4,3-d]pyrimidin-2(1H)-one] | >5 | >10
21 | COc1cc(OC)c(F)c(N2Cc3cnc(-c4cn(C)nc4C)cc3N(c3ccn(C)n3)C2=O)c1F [Example 100, 3-(2,6-difluoro-3,5-dimethoxyphenyl)-7-(1,3-dimethyl-1H-pyrazol-4-yl)-1-(1-methyl-1H-pyrazol-3-yl)-3,4-dihydropyrido[4,3-d]pyrimidin-2(1H)-one] | >5 | >5
22 | COc1cc(OC)c(F)c(N2Cc3cnc(-c4cnn(C5(CC#N)CN(C(C)=O)C5)c4)cc3C3(CC3)C2=O)c1F [Example 56, 2-(1-acetyl-3-(4-(2′-(2,6-difluoro-3,5-dimethoxyphenyl)-3′-oxo-2′,3′-dihydro-1′H-spiro[cyclopropane-1,4′-[2,7]naphthyridine]-6′-yl)-1H-pyrazol-1-yl)azetidin-3-yl)acetonitrile] | >5 | >1
23 | COc1cc(OC)c(F)c(N2Cc3cnc(-c4cn(C)nc4C)cc3N(Cc3ccccn3)C2=O)c1F [Example 94, 3-(2,6-difluoro-3,5-dimethoxyphenyl)-7-(1,3-dimethyl-1H-pyrazol-4-yl)-1-(pyridin-2-ylmethyl)-3,4-dihydropyrido[4,3-d]pyrimidin-2(1H)-one] | >5 | >10
24 | COc1cc(OC)c(F)c(N2Cc3cnc(-c4cn(C)nc4C)cc3N(c3ccc(F)cc3)C2=O)c1F [Example 40, 3-(2,6-difluoro-3,5-dimethoxyphenyl)-7-(1,3-dimethyl-1H-pyrazol-4-yl)-1-(4-fluorophenyl)-3,4-dihydropyrido[4,3-d]pyrimidin-2(1H)-one] | >10 | >10
25 | COc1cc(OC)c(F)c(N2Cc3cnc(-c4cn(C)nc4C)cc3N(c3cnccn3)C2=O)c1F [Example 70, 3-(2,6-difluoro-3,5-dimethoxyphenyl)-7-(1,3-dimethyl-1H-pyrazol-4-yl)-1-(pyrazin-2-yl)-3,4-dihydropyrido[4,3-d]pyrimidin-2(1H)-one] | >5 | >5
